Test results: PubChem BioAssay AID1963970 (Molecular Pharmacology Branch, DTP, NCI, 2024)

Tested on: 931267-113-T-J1-PDC multicell spheroid viability
Assay: Anticancer human tumor 931267-113-T-J1-PDC patient-derived colon adenocarcinoma cell line growth inhibition [PI3K]
Conditions: for IC50: curve of first compound; for viability, T/C: stronger effect = lower value; active = viability on the fitted dose curve at most 10% of control; inactive = the rest
Outline: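 Multi-cell spheroids combine tumor cells with HUVEC and human MSCs, treated with targeted agents alone or with inavolisib, alpelisib, duvelisib or copanlisib. Concentrations fall in half-log steps from at or near clinical Cmax, or from 10 microM where Cmax is unknown; viability read-out.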

[1] = second compound 0.0316 µM, first compound 0.0316 µM
[2] = second compound 0.0316 µM, first compound 0.1 µM
[3] = second compound 0.0316 µM, first compound 0.316 µM
[4] = second compound 0.0316 µM, first compound 1 µM
[5] = second compound 0.0316 µM, first compound 3.16 µM
[6] = second compound 0.0316 µM, first compound 10 µM
[7] = second compound 0.1 µM, first compound 0.0316 µM
[8] = second compound 0.1 µM, first compound 0.1 µM
[9] = second compound 0.1 µM, first compound 0.316 µM
[10] = second compound 0.1 µM, first compound 1 µM
[11] = second compound 0.1 µM, first compound 3.16 µM
[12] = second compound 0.1 µM, first compound 10 µM
[13] = second compound 0.316 µM, first compound 0.0316 µM
[14] = second compound 0.316 µM, first compound 0.1 µM
[15] = second compound 0.316 µM, first compound 0.316 µM
[16] = second compound 0.316 µM, first compound 1 µM
[17] = second compound 0.316 µM, first compound 3.16 µM
[18] = second compound 0.316 µM, first compound 10 µM
[19] = second compound 1 µM, first compound 0.0316 µM
[20] = second compound 1 µM, first compound 0.1 µM
[21] = second compound 1 µM, first compound 0.316 µM
[22] = second compound 1 µM, first compound 1 µM
[23] = second compound 1 µM, first compound 3.16 µM
[24] = second compound 1 µM, first compound 10 µM
[25] = second compound 3.16 µM, first compound 0.0316 µM
[26] = second compound 3.16 µM, first compound 0.1 µM
[27] = second compound 3.16 µM, first compound 0.316 µM
[28] = second compound 3.16 µM, first compound 1 µM
[29] = second compound 3.16 µM, first compound 3.16 µM
[30] = second compound 3.16 µM, first compound 10 µM
[31] = second compound 10 µM, first compound 0.0316 µM
[32] = second compound 10 µM, first compound 0.1 µM
[33] = second compound 10 µM, first compound 0.316 µM
[34] = second compound 10 µM, first compound 1 µM
[35] = second compound 10 µM, first compound 3.16 µM
[36] = second compound 10 µM, first compound 10 µM
[37] = second compound 0.0316 µM, first compound 0.00316 µM
[38] = second compound 0.0316 µM, first compound 0.01 µM
[39] = second compound 0.1 µM, first compound 0.00316 µM
[40] = second compound 0.1 µM, first compound 0.01 µM
[41] = second compound 0.316 µM, first compound 0.00316 µM
[42] = second compound 0.316 µM, first compound 0.01 µM
[43] = second compound 1 µM, first compound 0.00316 µM
[44] = second compound 1 µM, first compound 0.01 µM
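Note: viability read 7 days after compound addition.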

C=CC(=O)N1CCN(c2nc(=O)n(-c3c(C)ccnc3C(C)C)c3nc(-c4c(O)cccc4F)c(F)cc23)C(C)C1 (stereo not given) + Cc1nc(NC(=O)N2CCCC2C(N)=O)sc1-c1ccnc(C(C)(C)C(F)(F)F)c1
> 10 µM: IC50 (second compound 0.0316 µM) | IC50 (second compound 0.1 µM) | IC50 (second compound 0.316 µM) | IC50 (second compound 1 µM) | IC50 (second compound 3.16 µM) | IC50 (second compound 10 µM)
inactive: viability, T/C [1] 86.3% | viability, T/C [2] 91.1% | viability, T/C [3] 99.2% | viability, T/C [4] 104% | viability, T/C [5] 108% | viability, T/C [6] 85.5% | viability, T/C [7] 99.6% | viability, T/C [8] 78.7% | viability, T/C [9] 85.7% | viability, T/C [10] 100% | viability, T/C [11] 105% | viability, T/C [12] 82.7% | viability, T/C [13] 80.6% | viability, T/C [14] 87.2% | viability, T/C [15] 94.1% | viability, T/C [16] 91.8% | viability, T/C [17] 84.7% | viability, T/C [18] 76.9% | viability, T/C [19] 83.5% | viability, T/C [20] 76.6% | viability, T/C [21] 73.9% | viability, T/C [22] 83.7% | viability, T/C [23] 94.7% | viability, T/C [24] 65.6% | viability, T/C [25] 66.3% | viability, T/C [26] 71.3% | viability, T/C [27] 71.1% | viability, T/C [28] 72.7% | viability, T/C [29] 71.2% | viability, T/C [30] 59% | viability, T/C [31] 54.6% | viability, T/C [32] 55.2% | viability, T/C [33] 59.2% | viability, T/C [34] 62.6% | viability, T/C [35] 62.4% | viability, T/C [36] 49%

CCN1CCN(Cc2ccc(Nc3ncc(F)c(-c4cc(F)c5nc(C)n(C(C)C)c5c4)n3)nc2)CC1 + COc1c(OCCCN2CCOCC2)ccc2c3n(c(=NC(=O)c4cnc(N)nc4)nc12)CCN3
inactive: viability, T/C (second compound 0.00316 µM, first compound 0.00316 µM) 91.3% | viability, T/C (second compound 0.00316 µM, first compound 0.01 µM) 105% | viability, T/C (second compound 0.00316 µM, first compound 0.0316 µM) 97.3% | viability, T/C (second compound 0.00316 µM, first compound 0.1 µM) 98.7% | viability, T/C (second compound 0.00316 µM, first compound 0.316 µM) 94.2% | viability, T/C (second compound 0.00316 µM, first compound 1 µM) 81.7% | viability, T/C (second compound 0.01 µM, first compound 0.00316 µM) 103% | viability, T/C (second compound 0.01 µM, first compound 0.01 µM) 89.4% | viability, T/C (second compound 0.01 µM, first compound 0.0316 µM) 87.6% | viability, T/C (second compound 0.01 µM, first compound 0.1 µM) 90.2% | viability, T/C (second compound 0.01 µM, first compound 0.316 µM) 89% | viability, T/C (second compound 0.01 µM, first compound 1 µM) 67% | viability, T/C [37] 84.3% | viability, T/C [38] 79.1% | viability, T/C [1] 76.8% | viability, T/C [2] 70.8% | viability, T/C [3] 67.2% | viability, T/C [4] 55.5% | viability, T/C [39] 66.3% | viability, T/C [40] 65.6% | viability, T/C [7] 57.2% | viability, T/C [8] 47.5% | viability, T/C [9] 49.2% | viability, T/C [10] 50.8% | viability, T/C [41] 53.5% | viability, T/C [42] 44.7% | viability, T/C [13] 39.6% | viability, T/C [14] 37.3% | viability, T/C [15] 41.6% | viability, T/C [16] 45% | viability, T/C [43] 33.6% | viability, T/C [44] 35.6% | viability, T/C [19] 25.3% | viability, T/C [20] 32.3% | viability, T/C [21] 35.9% | viability, T/C [22] 36.7%
< 0.00316 µM: IC50 (second compound 0.316 µM) | IC50 (second compound 1 µM)
> 1 µM: IC50 (second compound 0.00316 µM) | IC50 (second compound 0.01 µM) | IC50 (second compound 0.0316 µM)
0.0888 µM: IC50 (second compound 0.1 µM)

CC1(C)CCC(CN2CCN(c3ccc(C(=O)NS(=O)(=O)c4ccc(NCC5CCOCC5)c([N+](=O)[O-])c4)c(Oc4cnc5[nH]ccc5c4)c3)CC2)=C(c2ccc(Cl)cc2)C1 + Cc1nc(NC(=O)N2CCCC2C(N)=O)sc1-c1ccnc(C(C)(C)C(F)(F)F)c1
4.73 µM: IC50 (second compound 1 µM)
5.31 µM: IC50 (second compound 0.316 µM)
4.44 µM: IC50 (second compound 3.16 µM)
6.06 µM: IC50 (second compound 0.0316 µM)
5.9 µM: IC50 (second compound 0.1 µM)
active: viability, T/C [24] 8.3% | viability, T/C [30] 8.18% | viability, T/C [36] 7.58%
inactive: viability, T/C [1] 105% | viability, T/C [2] 98.3% | viability, T/C [3] 98% | viability, T/C [4] 108% | viability, T/C [5] 90.3% | viability, T/C [6] 19% | viability, T/C [7] 95.4% | viability, T/C [8] 94% | viability, T/C [9] 92% | viability, T/C [10] 102% | viability, T/C [11] 92.6% | viability, T/C [12] 14% | viability, T/C [13] 91.7% | viability, T/C [14] 101% | viability, T/C [15] 98.5% | viability, T/C [16] 84.7% | viability, T/C [17] 80.2% | viability, T/C [18] 15.7% | viability, T/C [19] 91.7% | viability, T/C [20] 78.4% | viability, T/C [21] 79.4% | viability, T/C [22] 88.1% | viability, T/C [23] 72.5% | viability, T/C [25] 73.2% | viability, T/C [26] 72.8% | viability, T/C [27] 72.5% | viability, T/C [28] 70.6% | viability, T/C [29] 67.6% | viability, T/C [31] 57.1% | viability, T/C [32] 57.9% | viability, T/C [33] 50.3% | viability, T/C [34] 58.1% | viability, T/C [35] 53.7%
3.48 µM: IC50 (second compound 10 µM)

CCN1CCN(Cc2ccc(Nc3ncc(F)c(-c4cc(F)c5nc(C)n(C(C)C)c5c4)n3)nc2)CC1 + Cc1nc(NC(=O)N2CCCC2C(N)=O)sc1-c1ccnc(C(C)(C)C(F)(F)F)c1
inactive: viability, T/C [37] 91.7% | viability, T/C [38] 99.6% | viability, T/C [1] 100% | viability, T/C [2] 103% | viability, T/C [3] 94.3% | viability, T/C [4] 86.2% | viability, T/C [39] 98% | viability, T/C [40] 97.1% | viability, T/C [7] 102% | viability, T/C [8] 96.5% | viability, T/C [9] 84.6% | viability, T/C [10] 84.5% | viability, T/C [41] 91.2% | viability, T/C [42] 81.2% | viability, T/C [13] 96.1% | viability, T/C [14] 91.8% | viability, T/C [15] 81% | viability, T/C [16] 75.1% | viability, T/C [43] 69.4% | viability, T/C [44] 83.1% | viability, T/C [19] 79.7% | viability, T/C [20] 77.5% | viability, T/C [21] 71.5% | viability, T/C [22] 62.4% | viability, T/C (second compound 3.16 µM, first compound 0.00316 µM) 71.4% | viability, T/C (second compound 3.16 µM, first compound 0.01 µM) 80.7% | viability, T/C [25] 66.8% | viability, T/C [26] 61.9% | viability, T/C [27] 55.8% | viability, T/C [28] 59.4% | viability, T/C (second compound 10 µM, first compound 0.00316 µM) 58.6% | viability, T/C (second compound 10 µM, first compound 0.01 µM) 57% | viability, T/C [31] 50.1% | viability, T/C [32] 43.3% | viability, T/C [33] 50.4% | viability, T/C [34] 57.2%
> 1 µM: IC50 (second compound 0.0316 µM) | IC50 (second compound 0.1 µM) | IC50 (second compound 0.316 µM) | IC50 (second compound 1 µM) | IC50 (second compound 3.16 µM) | IC50 (second compound 10 µM)

Cn1ncc(Cl)c1-c1cc(C(=O)NC(CN)Cc2cccc(F)c2)sc1Cl (stereo not given) + CC(Nc1ncnc2nc[nH]c12)c1cc2cccc(Cl)c2c(=O)n1-c1ccccc1
8.02 µM: IC50 (second compound 1 µM)
8.83 µM: IC50 (second compound 0.1 µM)
6.77 µM: IC50 (second compound 0.316 µM)
6 µM: IC50 (second compound 10 µM)
inactive: viability, T/C [1] 100% | viability, T/C [2] 105% | viability, T/C [3] 101% | viability, T/C [4] 86% | viability, T/C [5] 85.7% | viability, T/C [6] 35.1% | viability, T/C [7] 106% | viability, T/C [8] 119% | viability, T/C [9] 96% | viability, T/C [10] 91.4% | viability, T/C [11] 86.8% | viability, T/C [12] 44.5% | viability, T/C [13] 114% | viability, T/C [14] 109% | viability, T/C [15] 99.3% | viability, T/C [16] 94.5% | viability, T/C [17] 79% | viability, T/C [18] 35.7% | viability, T/C [19] 107% | viability, T/C [20] 110% | viability, T/C [21] 92.5% | viability, T/C [22] 91.2% | viability, T/C [23] 80.6% | viability, T/C [24] 42.4% | viability, T/C [25] 99.7% | viability, T/C [26] 97.3% | viability, T/C [27] 97.8% | viability, T/C [28] 86.9% | viability, T/C [29] 74.5% | viability, T/C [30] 33.4% | viability, T/C [31] 92.9% | viability, T/C [32] 89.3% | viability, T/C [33] 90.2% | viability, T/C [34] 87.3% | viability, T/C [35] 67.3% | viability, T/C [36] 36.1%
6.2 µM: IC50 (second compound 3.16 µM)
6.98 µM: IC50 (second compound 0.0316 µM)
